Measurements: patent US20210315992A1, “ADJUVANT EFFECT OF THE TLR1/2 AGONIST DIPROVOCIM SYNERGIZES WITH CHECKPOINT-INHIBITING ANTIBODIES TO ELIMINATE DISEASE” (The Board of Regents of the University of Texas System, priority 2018, published 2021)

Key:
B16-OVA melanoma = test: B16-OVA melanoma, pre-tumor treatment (immunization on day of tumor inoculation); type: in vivo, mouse
Protocol: FIG. 4A through FIG. 4J illustrate inhibition of B16-OVA tumor growth by pre- or post-tumor treatment with Diprovocim-adjuvanted tumor vaccination and checkpoint blockade. FIG. 4A provides a schematic of pre- and post-tumor treatment protocols. C57BL/6J mice (n=8 mice per treatment) were injected s.c. with 2×10^5 B16-OVA melanoma cells on day 0. For pre-tumor treatment, mice were immunized i.m. with OVA (100 μg) mixed with vehicle or Diprovocim (10 mg/kg) or alum (2 mg/kg) on the same day prior to tumor injection. Mice received a booster immunization seven days later in which anti-PD-L1 (200 μg) was administered on days 3, 6 and 9 after tumor inoculation by i.p. injection. For post-tumor treatment, initial immunization was on day 3 after tumor inoculation, with a booster seven days later. Anti-PD-L1 (200 μg) was administered on days 3, 6, 9, 12, and 15 after tumor inoculation by i.p. injection. FIG. 4B through FIG. 4F illustrate pre-tumor treatment results. Tumor volume (FIG. 4B and FIG. 4D) and percent mouse survival (survivors/total mice) (FIG. 4C and FIG. 4E). […] FIG. 4G through FIG. 4J illustrate a comparison of pre-tumor (FIG. 4G and FIG. 4H) vs. post-tumor treatment (FIG. 4I and FIG. 4J). Tumor volume (FIG. 4G and FIG. 4I) and percent mouse survival (survivors/total mice) (FIG. 4H and FIG. 4J) are shown. P values for tumor volume analysis apply to the final time point as indicated in graphs and were calculated by Student's t test. P values for survival analysis were calculated by Kaplan-Meier analysis. All results are representative of two independent studies.
C57BL/6J mice (n=8) were injected s.c. with 2×10^5 B16-OVA melanoma cells on day 0. Anti-PD-L1 (200 μg) or mouse IgG2a isotype control antibody was administered on days 3, 6 and 9 after tumor inoculation by i.p. injection. FIG. 8A is a graph of tumor volume versus time and FIG. 8B is a graph showing percent mouse survival (survivors/total mice) versus time. The control values in both plots are shown above those for the anti-PD-L1 values where the two values diverge. […] Results are representative of two independent studies.
B16-OVA cells (B16F10 melanoma cells stably expressing chicken ovalbumin) were grown in DMEM containing 10% vol/vol FBS. A total of 2×10^5 B16-OVA cells in 100 μL PBS were injected s.c. into the right flank of 8-12 week old male C57BL/6J mice to establish tumors (n=8 mice per group). For pretreatment, 10 mg/kg Diprovocim-1 or 2 mg/kg alum with or without OVA (100 μg) was injected i.m. into mice on the same day as tumor inoculation (day 0). Mice received a booster shot seven days after the first immunization. On day 3, 6 and 9, some groups were injected i.p. with 200 μg checkpoint inhibitor (anti-mPD-L1, BioXcell) in 100 μl saline.
Tumors were measured with a digital caliper (Fisher) and the tumor sizes were calculated using the following formula: volume=0.5×length×width^2. Mice were sacrificed when the tumor length or width reached 2 cm.

human TLR1/TLR2 = target: T1, human TLR1/TLR2 (Homo sapiens, UniProt O60603+Q15399); test: TNF in THP-1 cells pretreated with anti-TLR1 or anti-TLR2 antibody; type: cell-based; conditions: 250 pM, 4 hours; antibody 20 μg/ml, 1 hour pretreatment
T1 construct: TNF in the supernatants of human THP-1 cells pretreated with control antibody, anti-TLR1 (20 μg/ml), or anti-TLR2 (20 μg/ml); host or cells: THP-1 cells differentiated with 100 nM PMA
T1 sequence (Q15399 25-786): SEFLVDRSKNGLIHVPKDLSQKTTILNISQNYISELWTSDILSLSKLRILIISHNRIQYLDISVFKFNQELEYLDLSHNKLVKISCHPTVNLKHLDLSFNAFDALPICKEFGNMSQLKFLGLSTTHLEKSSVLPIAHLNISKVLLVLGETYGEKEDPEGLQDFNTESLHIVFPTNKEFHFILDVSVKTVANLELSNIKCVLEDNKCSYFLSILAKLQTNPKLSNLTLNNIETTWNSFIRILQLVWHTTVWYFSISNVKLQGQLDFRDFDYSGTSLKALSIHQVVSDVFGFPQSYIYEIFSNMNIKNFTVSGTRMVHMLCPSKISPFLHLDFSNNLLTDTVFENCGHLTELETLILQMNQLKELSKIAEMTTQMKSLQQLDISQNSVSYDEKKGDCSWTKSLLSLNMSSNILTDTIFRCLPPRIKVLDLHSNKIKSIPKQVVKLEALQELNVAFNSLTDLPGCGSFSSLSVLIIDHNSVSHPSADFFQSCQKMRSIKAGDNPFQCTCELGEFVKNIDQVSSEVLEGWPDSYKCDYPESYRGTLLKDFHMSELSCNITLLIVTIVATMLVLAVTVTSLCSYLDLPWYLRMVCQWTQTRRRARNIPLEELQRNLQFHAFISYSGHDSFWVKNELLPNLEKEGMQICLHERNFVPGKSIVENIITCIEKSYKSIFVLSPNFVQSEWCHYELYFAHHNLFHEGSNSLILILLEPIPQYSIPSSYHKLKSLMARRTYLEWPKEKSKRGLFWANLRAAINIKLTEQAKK
T1 sequence (O60603 21-784): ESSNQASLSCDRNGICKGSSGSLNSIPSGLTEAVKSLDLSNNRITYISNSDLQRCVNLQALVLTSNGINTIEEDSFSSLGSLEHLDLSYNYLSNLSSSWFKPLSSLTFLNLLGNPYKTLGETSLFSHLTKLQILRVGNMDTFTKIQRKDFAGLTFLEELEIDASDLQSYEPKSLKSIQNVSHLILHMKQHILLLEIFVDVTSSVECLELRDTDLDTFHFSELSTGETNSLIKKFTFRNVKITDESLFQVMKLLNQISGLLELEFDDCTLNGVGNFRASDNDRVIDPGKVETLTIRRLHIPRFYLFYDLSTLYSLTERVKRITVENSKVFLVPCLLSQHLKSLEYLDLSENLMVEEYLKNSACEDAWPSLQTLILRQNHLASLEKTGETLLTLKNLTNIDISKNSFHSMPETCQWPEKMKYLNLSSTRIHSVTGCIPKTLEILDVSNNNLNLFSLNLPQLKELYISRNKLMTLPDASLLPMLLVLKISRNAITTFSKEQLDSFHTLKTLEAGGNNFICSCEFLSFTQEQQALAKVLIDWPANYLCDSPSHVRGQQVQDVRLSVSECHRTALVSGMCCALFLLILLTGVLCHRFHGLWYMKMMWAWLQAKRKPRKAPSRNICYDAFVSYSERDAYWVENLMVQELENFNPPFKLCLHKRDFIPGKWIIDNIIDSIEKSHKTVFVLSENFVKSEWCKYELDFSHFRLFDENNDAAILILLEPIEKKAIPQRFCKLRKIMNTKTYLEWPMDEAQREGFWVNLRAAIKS
Protocol: Cells were seeded onto 96-well plates at 1×10^5 cells per well and stimulated with a Diprovocim (dissolved in DMSO, and final DMSO concentrations (0.2%) were kept constant in all experiments) for 4 h. Mouse TNF, IL-6, or IFN-β, or human TNF in the supernatants were measured by ELISA kits according to the manufacturer's instructions (eBioscience and PBL Assay Science). Pretreatment with 20 μg/ml anti-TLR1, anti-TLR2 or isotype control antibody (eBioscience) was for 1 hour. Unless otherwise indicated, mouse cells were from wild type C57BL/6J mice.

[1] = system: B16-OVA and B16F10 tumor cells; test: Re-challenge of tumor-free survivors with B16-OVA and B16 cells; type: in vivo, mouse; conditions: survivors of Diprovocim+OVA plus anti-PD-L1, no further therapy

O=C(N[C@H]1C[C@@H]1c1ccccc1)[C@@H]1CN(C(=O)c2ccc(C(=O)N3C[C@@H](C(=O)N[C@H]4C[C@@H]4c4ccccc4)[C@H](C(=O)N[C@H]4C[C@@H]4c4ccccc4)C3)cc2)C[C@H]1C(=O)N[C@H]1C[C@@H]1c1ccccc1 [Diprovocim-1, (3S,3'S,4S,4'S)-1,1′-Terephthaloylbis(N^3,N^4-bis((1S,2R)-2-phenylcyclo-propyl)pyrrolidine-3,4-dicarboxamide)]
tumor growth or mouse survival (B16-OVA melanoma; Diprovocim alone (no OVA) combined with anti-PD-L1 treatment): no effect | effect on tumor growth, survival rate, and survival time compared with alum (B16-OVA melanoma; pre-tumor treatment): superior to that of alum | tumor growth rates and survival times compared with vehicle alone (B16-OVA melanoma; single agent, no anti-PD-L1, i.m. day 0 and booster day 7): similar | effect on THP-1 cells (TNF) after TLR1 or TLR2 antibody (human TLR1/TLR2): significantly reduced | memory response on tumor re-challenge [1]: antigen-specific memory responses that protect the host from relapse of tumor growth
